Results on two compounds are retold here after US6107549A, “Genetically engineered plant resistance to thiazopyr and other pyridine herbicides” (Monsanto Company, priority 1999, dated 2000).

The subject of one data set is tomato seedlings. As to conditions: in vivo. As for the experimental part:
Esterase activity was also monitored in plants. [^14 C]Thiazopyr or [^14 C]MON 14300 (1-4 μg in acetonitrile) was applied directly to shoots and cotyledons of young seedlings. After 2 days in a growth chamber, tobacco or tomato seedlings were washed with methanol and water, then homogenized (TISSUMIZER™, Tekmar-Dohrmann, Cincinnatti, Ohio) in 5% (v/v) trifluoroacetic acid in acetonitrile (fresh w/v ratio of 2/1). Homogenates were clarified by centrifugation (12,000× g) and supernatants analyzed by HPLC/RAD for the formation of the monoacid metabolite.
MON 14300 was applied to the shoot of 2-day old seedlings. Two days after treatment, seedlings were washed with methanol and tissue extracts analyzed by HPLC. The HPLC chromatograms show signals from both the UV254 nm (upper trace, FIG. 5) and radioactivity (lower trace, FIG. 5) detectors. For the purpose of metabolite identification, plant extracts were co-injected with a mixture of authentic standards visible under UV detection. […] In both transgenic lines, small levels of more polar products, presumably from further degradation of the monoacid as reported by McClanahan et al. (1995), were detected near the solvent front.

The subject of a further data set is tobacco seedlings. As to the kind of experiment: Root elongation assay for thiazopyr resistance. The class given is in vivo. The protocol: Root elongation assay for thiazopyr resistance. Transgenic tobacco R1 seeds (line #37432) were sterilized with a 0.25% sodium hypochlorite solution and repeatedly washed with water. Just prior to solidification of agar (~45° C.), stock solutions of thiazopyr in DMSO (1% final concentration) was added; the final concentrations of thiazopyr were 0, 0.05, 0.1, and 0.5 μM. The liquid agar was vortexed and dispensed (3 ml) into glass test tubes. Seeds (~12 per test tube) were placed on the surface of solidified agar and stored in a growth chamber at 25° C. with a 12 hr day and night cycle. Root development and length were monitored visually with time. Control experiments employed untransformed tobacco seeds from the Samson variety.

The test system of data set [1] is tomato. As to the kind of experiment: Greenhouse test, pre-plant incorporation (PPI). The class given is in vivo. As to conditions: 21 DAT. The protocol:
Green house test for tomato resistance. Similar studies were also conducted in greenhouse with pre-plant incorporation (PPI) of thiazopyr into the soil. During pre-emergence application of thiazopyr, it is possible that cracks in soil may allow seedlings to escape from exposure to thiazopyr that was sprayed on the soil surface. One way to prevent such escapes is to apply thiazopyr with pre-plant incorporation (PPI). In this method of application, thiazopyr is first incorporated into the soil and seeds are sowed directly into that soil. PPI application of thiazopyr can cause the most plant injury and therefore require lower rates of thiazopyr application.
Tomato seeds were planted in 100 cm^2 pots filled with a sterilized silty loam soil (510 g). Seeds were placed on top of soil, and covered with additional soil (135 g) which was premixed with thiazopyr at equivalent use rates of 0, 34, 45, 67, and 140 g/ha. Greenhouse growing conditions were: 29° C. day to 21° C. night with supplemental lighting as needed to maintain 200-900 μE.
In order to be certain that tomato resistance to thiazopyr in the above PE experiment was not due to escapes, a further experiment in the greenhouse using conducted using PPI application. Plants were visually rated at 21 days after treatment (DAT) based on comparison of % growth to untreated plants, and the results are presented in the bar chart in FIG. 6. […] At the 45 g/ha rate, UC82B was severely injured (10% growth) and the transgenics lines minimally injured (90% growth). At the 67 g/ha rate, UC82B plants were dead and the transgenics were stunted at 40 to 50% growth. […] Both #8255 and #8230 lines expressed the pyridine-esterase at 0.05% of total protein. The term `resistance` in all of these examples can also be expressed as a recombinantly acquired tolerance to the applied levels or rates of pyridine herbicide.

The subject of data set [2] is tomato. As to the kind of experiment: Field test for tomato resistance. Format: in vivo. The protocol: Field test for tomato resistance. A single field test was conducted in early summer at a Monsanto Company research farm in Jerseyville, Ill. A total of 9 transgenic lines were selected for the field study. […] The remaining 6 lines were R1 seeds selected based on high expression level and seed availability. About 400 seeds were pooled from each line based on uniformity of size and appearance, and randomly separated into 4 groups of about 100 seeds. Four parallel plots (5×20 m) were respectively sprayed with 0, 112, 336, and 673 g/ha of thiazopyr, which was then incorporated down to 7.5 cm of soil depth. The projected field use-rate for thiazopyr is about 280 g/ha. Seeds were placed in a furrow at every 5 cm distance and covered with soil. UC82B seeds were used as untransformed controls. After sowing, 13 mm of water was irrigated over the plots. […] Nevertheless, it was possible to measure thiazopyr resistance based on seedling emergence between control UC82B and the transgenic lines. […] However at 336 g/ha, #8255-30 maintained germination at 10% while UC82B declined to about 1%. […] The transgenic lines flowered, set fruit, and yielded abundant tomatoes and seeds.

As usually defined, the inhibition is the relative decrease from the control value, in per cent. Higher therefore signals a strong effect.

Regarding `COC(=O)c1c(C(F)F)nc(C(F)(F)F)c(C(=O)n2cccn2)c1CC(C)C` [MON 14300], the metabolism in plants result with tomato seedlings is on record as “little to no metabolism in plants”. Further, in the data set on tomato seedlings (tomato, 48 h), the monoacid in residue is 2.5% and the “parent as primary residue” value was found to be 90.8%.
Consider `COC(=O)c1c(C(F)F)nc(C(F)(F)F)c(C2=NCCS2)c1CC(C)C` [thiazopyr], for which the inhibition at 0.1 µM with tobacco seedlings (Nicotiana tabacum, control (Samson) seedlings, 0.1 μM thiazopyr) is around 50%. The root length result in the data set on tobacco seedlings (transgenic line #37432, 0.1 μM thiazopyr) is reported as “normal root length”. Further, in the data set on tobacco seedlings (transgenic line #37432, 0.5 μM thiazopyr), the root inhibition result is “Root inhibition was observed”. The “% growth compared to untreated plants” value in the data set on tomato [1] (UC82B control, 34 g/ha PPI) is on record as 75%; in the data set on tomato [1] (UC82B control, 45 g/ha PPI) it was 10%; in the data set on tomato [1] (transgenic #8255 and #8230, 34 g/ha PPI), 100%; in the data set with tomato [1] (transgenic #8255 and #8230, 45 g/ha PPI), 90%. The plant condition entry in the data set with tomato [1] (UC82B control, 67 g/ha PPI) is recorded as “dead”. Further, the germination result is “slightly lower but still comparable germination” with tomato [2] (UC82B and #8255-30, 112 g/ha, 21 days after planting); “about 1%” in the data set with tomato [2] (UC82B control, 336 g/ha); “no germination at all” in the data set with tomato [2] (UC82B control, 673 g/ha); 10% with tomato [2] (transgenic #8255-30, 336 g/ha); 4% with tomato [2] (transgenic #8255-30, 673 g/ha). Besides, the “survival at later time points” value in the data set with tomato [2] (UC82B plants that germinated at 112 and 336 g/ha) is “had died due to weakening of the stem at the soil line”. The “growth at later time points” value with tomato [2] (transgenic lines showing thiazopyr injury) is “growth was not affected”.
